Measured values reported in patent US8207172B2 (Bayer Intellectual Property GmbH, priority 2004, dated 2012).
pIC50: −log10 of the molar value. Where a name gives a salt, the structure may show the parent alone.

What was measured:
[1] = test system: BT474 (human breast carcinoma); assay: In vitro tumor cell proliferation assay (Cell Titer-Glo luminescent cell viability), BT474; assay type: cell-based; details: BT-474, 72 h, BT474 cells, 72 hours of drug exposure, ATP luminescence readout, read-out: IC50, anti-proliferative activity (inhibition of cell proliferation)
Summary of the method: (§1)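 IC50 values reflect ATP-based luminescence (CellTiter-Glo) after 72 h compound exposure at 37°C. Both lines, A431 and BT474, were plated in RPMI with 10% FBS and received serial dilutions ranging from 100 μM to 64 pM final at 0.1% DMSO.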

[2] = test system: A431 cells (human epidermoid carcinoma); assay: In vitro tumor cell proliferation assay (Cell Titer-Glo luminescent cell viability), A431; assay type: cell-based; details: A-431, 72 h, 72 hours of drug exposure, ATP luminescence readout, read-out: IC50, anti-proliferative activity (inhibition of cell proliferation)
Summary of the method: as §1

Row | Structure (SMILES) | pIC50 [1] | pIC50 [2]
1 | CN1CCN(CCn2cc3c(n2)CCc2c-3sc3ncnc(Nc4ccc(OCc5cccc(F)c5)c(Cl)c4)c23)CC1 [Example 62, N-{3-chloro-4-[(3-fluorobenzyl)oxy]phenyl}-2-[2-(4-methylpiperazin-1-yl)ethyl]-4,5-dihydro-2H-pyrimido[5′,4′:4,5]thieno[2,3-e]indazol-6-amine] | ≥ 6.00 | ≥ 5.30
2 | OCCN(CCO)C[C@@H](O)Cn1ncc2c1CCc1c-2sc2ncnc(Nc3ccc(OCc4cccc(F)c4)c(Cl)c3)c12 [Example 172, (2R)-1-[bis(2-hydroxyethyl)amino]-3-[6-({3-chloro-4-[(3-fluorobenzyl)oxy]phenyl}amino)-4,5-dihydro-3H-pyrimido[5′,4′:4,5]thieno[2,3-e]indazol-3-yl]propan-2-ol trifluoroacetate (salt)] | ≥ 6.00 | ≥ 4.30
3 | CN1CCN(CCn2ncc3c2CCc2c-3sc3ncnc(Nc4ccc(OCc5cccc(Cl)c5)c(Cl)c4)c23)CC1 [Example 317, N-{3-chloro-4-[(3-chlorobenzyl)oxy]phenyl}-3-[2-(4-methylpiperazin-1-yl)ethyl]-4,5-dihydro-3H-pyrimido[5′,4′:4,5]thieno[2,3-e]indazol-6-amine trifluoroacetate] | ≥ 6.00 | ≥ 5.30
4 | CCCN(CCOC)CCn1cc2c(n1)CCc1c-2sc2ncnc(Nc3ccc(F)c(Cl)c3)c12 [Example 23, N-(3-chloro-4-fluorophenyl)-2-{2-[(2-methoxyethyl)(propyl)amino]ethyl}-4,5-dihydro-2H-pyrimido[5′,4′:4,5]thieno[2,3-e]indazol-6-amine] | ≥ 5.30 | ≥ 5.30
5 | CCCn1ncc2c1CCc1c-2sc2ncnc(Nc3ccc(OCc4cccc(F)c4)c(Cl)c3)c12 [Example 131, N-{3-chloro-4-[(3-fluorobenzyl)oxy]phenyl}-3-propyl-4,5-dihydro-3H-pyrimido[5′,4′:4,5]thieno[2,3-e]indazol-6-amine trifluoroacetate] | ≥ 6.00 | ≥ 4.30
6 | O=C(CN(CCO)CCO)N1CCC(Cn2cc3c(n2)CCc2c-3sc3ncnc(Nc4ccc(OCc5cccc(F)c5)c(Cl)c4)c23)CC1 [Example 240, 2,2′-{[2-(4-{[6-({3-chloro-4-[(3-fluorobenzyl)oxy]phenyl}amino)-4,5-dihydro-2H-pyrimido[5′,4′:4,5]thieno[2,3-e]indazol-2-yl]methyl}piperidin-1-yl)-2-oxoethyl]imino}diethanol] | ≥ 6.00 | ≥ 5.30
7 | CN1CCN(C[C@@H](O)Cn2ncc3c2CCc2c-3sc3ncnc(Nc4ccc(OCc5cccc(F)c5)c(Cl)c4)c23)CC1 [Example 167, (2R)-1-[6-({3-chloro-4-[(3-fluorobenzyl)oxy]phenyl}amino)-4,5-dihydro-3H-pyrimido[5′,4′:4,5]thieno[2,3-e]indazol-3-yl]-3-(4-methylpiperazin-1-yl)propan-2-ol trifluoroacetate (salt)] | ≥ 6.00 | ≥ 4.30
8 | CS(=O)(=O)CCNC[C@@H](O)Cn1cc2c(n1)CCc1c-2sc2ncnc(Nc3ccc(OCc4cccc(F)c4)c(Cl)c3)c12 [Example 154, (2R)-1-[6-({3-chloro-4-[(3-fluorobenzyl)oxy]phenyl}amino)-4,5-dihydro-2H-pyrimido[5′,4′:4,5]thieno[2,3-e]indazol-2-yl]-3-{[2-(methylsulfonyl)ethyl]amino} propan-2-ol trifluoroacetate (salt)] | ≥ 6.00 | ≥ 4.30
9 | CCN1CCN(CCn2cc3c(n2)CCc2c-3sc3ncnc(Nc4ccc(OCc5cccc(F)c5)c(Cl)c4)c23)CC1 [Example 121, N-{3-chloro-4-[(3-fluorobenzyl)oxy]phenyl}-2-[2-(4-ethylpiperazin-1-yl)ethyl]-4,5-dihydro-2H-pyrimido[5′,4′:4,5]thieno[2,3-e]indazol-6-amine] | ≥ 6.00 | ≥ 5.30
10 | CN1CCN(CCCn2ncc3c2CCc2c-3sc3ncnc(Nc4ccc(OCc5cccc(F)c5)c(Cl)c4)c23)CC1 [Example 269, N-{3-chloro-4-[(3-fluorobenzyl)oxy]phenyl}-3-[3-(4-methylpiperazin-1-yl)propyl]-4,5-dihydro-3H-pyrimido[5′,4′:4,5]thieno[2,3-e]indazol-6-amine] | ≥ 6.00 | ≥ 5.30
11 | Fc1cccc(Cn2ncc3cc(Nc4ncnc5sc6c(c45)CCc4n[nH]cc4-6)ccc32)c1 [Example 288, N-[1-(3-fluorobenzyl)-1H-indazol-5-yl]-4,5-dihydro-2H-pyrimido[5′,4′:4,5]thieno[2,3-e]indazol-6-amine] | ≥ 6.00 | ≥ 5.30
12 | CN(C)C1CCN(C(=O)Cn2ncc3c2CCc2c-3sc3ncnc(Nc4ccc(OCc5cccc(F)c5)c(Cl)c4)c23)C1 (stereo in doubt) [Example 208, N-{3-chloro-4-[(3-fluorobenzyl)oxy]phenyl}-3-{2-[(3S)-3-(dimethylamino)pyrrolidin 1-yl]-2-oxoethyl}-4,5-dihydro-3H-pyrimido[5′,4′:4,5]thieno[2,3-e]indazol-6-amine] | ≥ 6.00 | ≥ 5.30
13 | OCCNCCn1cc2c(n1)CCc1c-2sc2ncnc(Nc3ccc(OCc4cccc(F)c4)c(Cl)c3)c12 [Example 61, 2-({2-[6-({3-chloro-4-[(3-fluorobenzyl)oxy]phenyl}amino)-4,5-dihydro-2H-pyrimido[5′,4′:4,5]thieno[2,3-e]indazol-2-yl]ethyl}amino)ethanol] | ≥ 6.00 | ≥ 5.30
14 | Fc1cccc(COc2ccc(Nc3ncnc4sc5c(c34)CCc3c-5cnn3CCn3ccnc3)cc2Cl)c1 [Example 83, N-{3-chloro-4-[(3-fluorobenzyl)oxy]phenyl}-3-[2-(1H-imidazol-1-yl)ethyl]-4,5-dihydro-3H-pyrimido[5′,4′:4,5]thieno[2,3-e]indazol-6-amine] | ≥ 6.00 | ≥ 5.30
15 | CNC[C@@H](O)Cn1cc2c(n1)CCc1c-2sc2ncnc(Nc3ccc(OCc4cccc(F)c4)c(Cl)c3)c12 [Example 155, (2R)-1-[6-({3-chloro-4-[(3-fluorobenzyl)oxy]phenyl}amino)-4,5-dihydro-2H-pyrimido[5′,4′:4,5]thieno[2,3-e]indazol-2-yl]-3-(methylamino)propan-2-ol trifluoroacetate (salt)] | ≥ 6.00 | ≥ 4.30
16 | CN(C)C1CCN(CCn2cc3c(n2)CCc2c-3sc3ncnc(Nc4ccc(OCc5cccc(F)c5)c(Cl)c4)c23)C1 (stereo not drawn) [Example 66, N-{3-chloro-4-[(3-fluorobenzyl)oxy]phenyl}-2-{2-[3-(dimethylamino)pyrrolidin-1-yl]ethyl}-4,5-dihydro-2H-pyrimido[5′,4′:4,5]thieno[2,3-e]indazol-6-amine] | ≥ 6.00 | ≥ 5.30
17 | OCC(O)Cn1ncc2c1CCc1c-2sc2ncnc(Nc3ccc(OCc4cccc(F)c4)c(Cl)c3)c12 (stereo not drawn) [Example 132, 3-[6-({3-chloro-4-[(3-fluorobenzyl)oxy]phenyl}amino)-4,5-dihydro-3Hpyrimido[5′,4′:4,5]thieno[2,3-e]indazol-3-yl]propane-1,2-diol] | ≥ 6.00 | ≥ 5.30
18 | CN1CCN(CCn2cc3c(n2)CCc2c-3sc3ncnc(Nc4cc(Cl)c(Cl)cc4F)c23)CC1 [Example 344, N-(4,5-dichloro-2-fluorophenyl)-2-[2-(4-methylpiperazin-1-yl)ethyl]-4,5-dihydro-2H-pyrimido[5′,4′:4,5]thieno[2,3-e]indazol-6-amine trifluoroacetate] | ≥ 5.30 | ≥ 5.30
